Each structure is given as a SMILES string. The source made the active and inactive calls. No cut-off for these calls is given here.

This note sets out measurements from ChEMBL document CHEMBL5321200, “Discovery of the GSH responsive "Y-PROTACs" targeting ALK and CDK4/6 as a potential treatment for cancer” (Eur J Med Chem, 2023).

The target in series [1] is Protein cereblon/ALK tyrosine kinase receptor (Homo sapiens, UniProt Q96SW2+Q9UM73). Put plainly: PROTAC activity at CRBN/ALK in human NCI-H3122 cells assessed as induction of ALK degradation incubated for 24 hrs by Western blot analysis. The format is cell-based.
Sequence of Protein cereblon/ALK tyrosine kinase receptor (Q9UM73 whole entry): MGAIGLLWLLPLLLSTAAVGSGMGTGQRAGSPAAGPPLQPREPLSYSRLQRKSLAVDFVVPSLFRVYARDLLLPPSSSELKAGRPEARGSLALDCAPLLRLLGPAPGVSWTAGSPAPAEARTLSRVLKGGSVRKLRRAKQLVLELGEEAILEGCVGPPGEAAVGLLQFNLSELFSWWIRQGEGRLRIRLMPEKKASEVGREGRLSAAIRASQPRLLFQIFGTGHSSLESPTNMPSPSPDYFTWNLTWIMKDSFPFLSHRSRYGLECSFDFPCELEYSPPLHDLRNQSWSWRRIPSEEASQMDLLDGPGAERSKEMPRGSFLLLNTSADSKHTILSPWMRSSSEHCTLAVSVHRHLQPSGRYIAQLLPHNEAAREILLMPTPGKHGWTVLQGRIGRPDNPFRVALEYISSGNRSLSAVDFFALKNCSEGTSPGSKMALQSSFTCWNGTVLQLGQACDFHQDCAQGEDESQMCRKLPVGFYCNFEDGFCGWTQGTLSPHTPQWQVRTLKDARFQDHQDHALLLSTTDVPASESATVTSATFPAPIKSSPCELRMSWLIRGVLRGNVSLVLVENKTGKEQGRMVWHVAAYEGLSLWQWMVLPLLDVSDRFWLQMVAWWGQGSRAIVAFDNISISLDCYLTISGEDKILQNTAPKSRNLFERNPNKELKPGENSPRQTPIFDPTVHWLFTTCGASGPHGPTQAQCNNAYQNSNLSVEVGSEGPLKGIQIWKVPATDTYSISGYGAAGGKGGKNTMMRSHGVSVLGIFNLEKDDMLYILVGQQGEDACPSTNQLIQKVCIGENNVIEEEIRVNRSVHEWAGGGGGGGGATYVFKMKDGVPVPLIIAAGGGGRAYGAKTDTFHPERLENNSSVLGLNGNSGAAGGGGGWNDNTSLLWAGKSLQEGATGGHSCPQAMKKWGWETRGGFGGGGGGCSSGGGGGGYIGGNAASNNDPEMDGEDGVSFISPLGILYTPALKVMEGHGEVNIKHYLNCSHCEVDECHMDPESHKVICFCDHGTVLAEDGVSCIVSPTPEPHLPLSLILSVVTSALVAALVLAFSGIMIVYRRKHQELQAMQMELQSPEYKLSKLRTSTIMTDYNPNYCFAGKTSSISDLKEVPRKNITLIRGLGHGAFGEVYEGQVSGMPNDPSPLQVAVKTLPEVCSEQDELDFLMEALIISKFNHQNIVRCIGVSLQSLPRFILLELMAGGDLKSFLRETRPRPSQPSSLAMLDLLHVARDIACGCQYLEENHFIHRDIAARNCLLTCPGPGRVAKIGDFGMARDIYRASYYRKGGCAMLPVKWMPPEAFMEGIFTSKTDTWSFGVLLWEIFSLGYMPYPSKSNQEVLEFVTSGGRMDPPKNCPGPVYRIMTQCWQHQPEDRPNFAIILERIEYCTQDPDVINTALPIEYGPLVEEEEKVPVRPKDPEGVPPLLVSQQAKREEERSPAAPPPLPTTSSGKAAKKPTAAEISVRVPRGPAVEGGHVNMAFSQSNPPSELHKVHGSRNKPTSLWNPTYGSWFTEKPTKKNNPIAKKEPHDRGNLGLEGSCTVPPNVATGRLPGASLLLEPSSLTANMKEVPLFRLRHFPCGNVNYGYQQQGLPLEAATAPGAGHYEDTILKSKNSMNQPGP
Sequence of Protein cereblon/ALK tyrosine kinase receptor (Q96SW2 whole entry): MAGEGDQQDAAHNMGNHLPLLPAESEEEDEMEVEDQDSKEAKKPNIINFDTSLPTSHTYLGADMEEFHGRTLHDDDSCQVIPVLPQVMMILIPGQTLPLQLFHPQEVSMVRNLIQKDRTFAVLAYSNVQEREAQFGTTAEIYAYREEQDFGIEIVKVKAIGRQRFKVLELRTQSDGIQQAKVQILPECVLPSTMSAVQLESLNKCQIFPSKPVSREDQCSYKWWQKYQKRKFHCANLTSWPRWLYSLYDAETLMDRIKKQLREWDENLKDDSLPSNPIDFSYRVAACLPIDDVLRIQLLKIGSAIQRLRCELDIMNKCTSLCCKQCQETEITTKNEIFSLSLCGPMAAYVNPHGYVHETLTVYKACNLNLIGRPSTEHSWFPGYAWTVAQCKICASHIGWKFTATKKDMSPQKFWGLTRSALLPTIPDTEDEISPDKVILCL
Series [2] concerns the target ALK tyrosine kinase receptor (Homo sapiens) (UniProt Q9UM73). Put plainly: Inhibition of ALK (unknown origin) at 1 uM by LANCE Ultra TR-FRET assay relative to control. (In TR-FRET formats the signal depends on donor and acceptor labels being close together.)
For series [3] the target is unchanged. Put plainly: Inhibition of ALK (unknown origin) at 0.05 uM by LANCE Ultra TR-FRET assay relative to control.
For series [4], the system named is NCI-H3122. Kind of series: Antiproliferative activity against human NCI-H3122 cells assessed as inhibition of cell growth incubated for 5 days by MTT assay. The format is functional, cell-based. Conditions: NCI-H3122, 120 h.
Series [5] deals with NCI-H3122. Kind of series: Antiproliferative activity against human NCI-H3122 cells assessed as inhibition of cell growth incubated for 5 days in presence of 2-(4-(6-((6-acetyl-8-cyclopentyl-5-methyl-7-oxo-7,8-dihydropyrido[2,3-d]pyrimidin-2-yl)amino)pyridin-3-yl)piperazin-1-yl)-N-(2-mercaptoethyl)acetamide by MTT assay. The conditions noted are these: NCI-H3122, 120 h. The format is functional, cell-based.

Series [6] relates to NCI-H3122. Kind of series: Antitumor activity against human NCI-H3122 cells xenografted in BALB/c nude mouse assessed as tumor growth inhibition at 50 mg/kg, IG administered once daily for 18 days and measured after 12 hrs of last dose relative to control. The format is functional. Conditions: NCI-H3122, po, time 444 hrs, read-out: TGI. (In general: Xenograft models place foreign cells or tissue in a host animal.)

Series [7] deals with NCI-H3122. Put plainly: Antitumor activity against human NCI-H3122 cells xenografted in BALB/c nude mouse assessed as reduction in tumor volume at 50 mg/kg, IG administered once daily for 18 days and measured after 12 hrs of last dose. Type of series: functional, organism-based. Conditions: time 444.0 hrs.
The test system of series [8] is NCI-H3122. Put plainly: Antitumor activity against human NCI-H3122 cells xenografted in BALB/c nude mouse assessed as reduction in tumor weight at 50 mg/kg, IG administered once daily for 18 days and measured after 12 hrs of last dose. The conditions noted are these: time 444.0 hrs. The format is functional, organism-based.
The test system of another series is Mus musculus. Put plainly: In vivo PROTAC activity at CRBN/EML4-ALK in BALB/c nude mouse xenografted with human NCI-H3122 cells assessed as reduction in EML4-ALK protein expression in tumor at 50 mg/kg, IG administered once daily for 18 days and measured after 12 hrs of last dose by immunohistochemical analysis. The format is functional, organism-based. Conditions: time 444.0 hrs.

A short description of series [9]: Toxicity in BALB/c nude mouse xenografted with human NCI-H3122 cells assessed as tolerance at 25 to 50 mg/kg, IG administered once daily for 18 days. Conditions: in vivo, po, 432 h, dose 25-50 mg/kg, time 18 day. The format is organism-based.
A short description of series [10]: Toxicity in BALB/c nude mouse xenografted with human NCI-H3122 cells assessed as reduction in body weight at 25 to 50 mg/kg, IG administered once daily for 18 days. Type of series: organism-based. Conditions: in vivo, po, 432 h, dose 25-50 mg/kg, time 18 day.
Series [11] is described as follows: Toxicity in BALB/c nude mouse xenografted with human NCI-H3122 cells assessed as effect on visceral liver morphology at 50 mg/kg, IG administered once daily for 18 days and measured after 12 hrs of last dose by H and E staining based assay. Type of series: organism-based. The conditions noted are these: in vivo, po, 444 h.
Series [12] is described as follows: Toxicity in BALB/c nude mouse xenografted with human NCI-H3122 cells assessed as effect on visceral spleen morphology at 50 mg/kg, IG administered once daily for 18 days and measured after 12 hrs of last dose by H and E staining based assay. The format is organism-based. The conditions noted are these: in vivo, po, 444 h.
Series [13] can be described thus: Toxicity in BALB/c nude mouse xenografted with human NCI-H3122 cells assessed as effect on visceral lung morphology at 50 mg/kg, IG administered once daily for 18 days and measured after 12 hrs of last dose by H and E staining based assay. Type of series: organism-based. The conditions noted are these: in vivo, po, 444 h.
Series [14] in a line: Toxicity in BALB/c nude mouse xenografted with human NCI-H3122 cells assessed as effect on visceral kidney morphology at 50 mg/kg, IG administered once daily for 18 days and measured after 12 hrs of last dose by H and E staining based assay. The format is organism-based. Conditions: in vivo, po, 444 h.
Series [15] in a line: Toxicity in BALB/c nude mouse xenografted with human NCI-H3122 cells assessed as effect on liver function at 50 mg/kg, IG administered once daily for 18 days by H and E staining based assay. The format is organism-based. The conditions noted are these: in vivo, po, 432 h, time 18 day.
A short description of series [16]: Toxicity in BALB/c nude mouse xenografted with human NCI-H3122 cells assessed as effect on spleen function at 50 mg/kg, IG administered once daily for 18 days by H and E staining based assay. Type of series: organism-based. Conditions: in vivo, po, 432 h, time 18 day.
Series [17] can be described thus: Toxicity in BALB/c nude mouse xenografted with human NCI-H3122 cells assessed as effect on lung function at 50 mg/kg, IG administered once daily for 18 days by H and E staining based assay. Type of series: organism-based. Conditions: in vivo, po, 432 h, time 18 day.
The nature of series [18]: Toxicity in BALB/c nude mouse xenografted with human NCI-H3122 cells assessed as effect on kidney function at 50 mg/kg, IG administered once daily for 18 days by H and E staining based assay. Type of series: organism-based. Conditions: in vivo, po, 432 h, time 18 day.
A short description of series [19]: Toxicity in BALB/c nude mouse xenografted with human NCI-H3122 cells assessed as effect on visceral heart morphology at 50 mg/kg, IG administered once daily for 18 days and measured after 12 hrs of last dose by H and E staining based assay. Type of series: organism-based. The conditions noted are these: in vivo, po, 444 h.
Series [20] in a line: Toxicity in BALB/c nude mouse xenografted with human NCI-H3122 cells assessed as effect on heart function at 50 mg/kg, IG administered once daily for 18 days and measured after 12 hrs of last dose by H and E staining based assay. Type of series: organism-based. The conditions noted are these: in vivo, po, 444 h.

Sequence of ALK tyrosine kinase receptor (Homo sapiens) (Q9UM73 19-1620 limits assumed): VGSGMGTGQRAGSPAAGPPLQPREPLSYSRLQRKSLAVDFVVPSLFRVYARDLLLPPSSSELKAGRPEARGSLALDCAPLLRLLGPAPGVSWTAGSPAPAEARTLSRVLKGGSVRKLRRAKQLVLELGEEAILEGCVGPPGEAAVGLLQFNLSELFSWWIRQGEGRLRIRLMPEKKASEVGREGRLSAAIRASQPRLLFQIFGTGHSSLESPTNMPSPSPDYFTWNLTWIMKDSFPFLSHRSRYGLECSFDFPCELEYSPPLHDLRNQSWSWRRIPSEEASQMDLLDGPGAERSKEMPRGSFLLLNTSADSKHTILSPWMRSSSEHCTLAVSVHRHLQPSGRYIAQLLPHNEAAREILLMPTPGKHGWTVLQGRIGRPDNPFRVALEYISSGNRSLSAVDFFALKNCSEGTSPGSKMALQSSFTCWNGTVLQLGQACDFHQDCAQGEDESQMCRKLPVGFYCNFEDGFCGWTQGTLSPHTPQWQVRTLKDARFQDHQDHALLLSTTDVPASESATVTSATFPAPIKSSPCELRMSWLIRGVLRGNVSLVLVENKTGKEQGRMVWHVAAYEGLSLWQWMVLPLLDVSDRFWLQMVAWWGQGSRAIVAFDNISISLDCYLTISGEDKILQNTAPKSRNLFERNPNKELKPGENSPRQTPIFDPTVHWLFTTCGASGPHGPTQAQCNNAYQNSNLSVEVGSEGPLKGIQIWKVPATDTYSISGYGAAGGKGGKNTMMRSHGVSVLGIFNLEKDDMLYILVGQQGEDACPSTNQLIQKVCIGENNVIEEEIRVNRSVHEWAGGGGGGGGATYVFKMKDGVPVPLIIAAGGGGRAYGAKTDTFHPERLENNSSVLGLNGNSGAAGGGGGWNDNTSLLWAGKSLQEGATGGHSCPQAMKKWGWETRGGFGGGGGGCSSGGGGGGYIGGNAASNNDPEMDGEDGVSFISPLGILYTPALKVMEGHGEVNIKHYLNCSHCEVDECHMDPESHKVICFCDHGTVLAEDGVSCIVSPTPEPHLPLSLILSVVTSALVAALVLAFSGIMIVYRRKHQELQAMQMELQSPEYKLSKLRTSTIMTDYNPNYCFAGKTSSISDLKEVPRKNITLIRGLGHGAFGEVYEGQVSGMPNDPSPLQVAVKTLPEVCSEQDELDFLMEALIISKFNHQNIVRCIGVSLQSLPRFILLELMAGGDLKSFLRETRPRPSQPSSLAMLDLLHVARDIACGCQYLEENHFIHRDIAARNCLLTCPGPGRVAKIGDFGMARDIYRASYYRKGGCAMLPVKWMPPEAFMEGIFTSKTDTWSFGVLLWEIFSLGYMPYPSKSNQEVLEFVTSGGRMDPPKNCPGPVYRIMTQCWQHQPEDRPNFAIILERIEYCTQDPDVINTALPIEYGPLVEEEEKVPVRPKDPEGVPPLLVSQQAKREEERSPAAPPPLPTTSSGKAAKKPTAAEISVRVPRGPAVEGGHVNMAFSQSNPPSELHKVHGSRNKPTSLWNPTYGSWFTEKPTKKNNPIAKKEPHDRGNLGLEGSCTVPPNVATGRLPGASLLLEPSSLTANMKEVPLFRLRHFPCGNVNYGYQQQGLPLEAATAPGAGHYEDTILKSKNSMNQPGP

For orientation: EC50 means the midpoint of the concentration-response curve. The inhibition is the relative decrease from the control value, in per cent. The term IC50 denotes the midpoint of a concentration-inhibition curve. For the compound `Cc1cc(Nc2ncc(Cl)c(Nc3ccccc3S(=O)(=O)C(C)C)n2)c(OC(C)C)cc1C1CCN(C(=O)CCCCCCC(=O)N(CCS)CC(=O)NCCNc2cccc3c2C(=O)N(C2CCC(=O)NC2=O)C3=O)CC1` (stereo unspecified), in series [1], the concentration for a half-maximal effect (EC50) is 690 nM. The inhibition in series [2] turned out to be 93%; in series [3], 82.2%. For the same compound, the 50% inhibitory concentration (IC50) in the series with NCI-H3122 [4] was 380 nM; in the series with NCI-H3122 [5], 190 nM. In the series with NCI-H3122 [6], the inhibition in vivo at 50 mg/kg was found to be 51.1%. Also, the result with NCI-H3122 [7], with NCI-H3122 [8] and with Mus musculus was Active. The Activity result in series [9], in series [10], in series [11], in [12], in [13] and in series [14] was “Non-Toxic” throughout. The Activity result in series [15], in series [16], in series [17], in series [18], in [19] and in series [20] was “Non-Toxic” throughout.
